This note sets out measurements from ChEMBL document CHEMBL1201862, “PubChem BioAssay data set” (2004).

Among the test systems are Hs-578T; MCF7; PC-3; MDA-N; BT-549.
Common to all, as to experiment: NCI anticancer screen, dose series, 48 h

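Exposure lasted 48 hours, with cells grown in 96-well plates and compounds tested at five concentrations. Here, GI50 denotes the concentration required for 50% inhibition of growth.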 The source made the active and inactive calls. No stated cut-off is given here; in the data, active = GI50 up to about 1.1 µM and inactive = higher.

Consider `CCCN1C(=O)CN(S(=O)(=O)c2ccc(Cl)cc2)C1=O`, for which the GI50 with Hs-578T, with MCF7, with PC-3, in the experiment with MDA-N and in the experiment with BT-549 was > 100 µM (inactive) throughout.

For the compound `COc1cc(C2SCC(=O)N2Cc2ccccc2)cc(OC)c1OC` (stereo not drawn), the GI50 in the experiment on Hs-578T, in the experiment on MCF7, in the experiment with PC-3, in the experiment with MDA-N and in the experiment with BT-549 was > 100 µM (inactive) throughout.

As for `COc1cc2cc(C(=O)N3CC(COS(C)(=O)=O)c4ccc(O)cc43)[nH]c2c(OC)c1OC` (stereo not drawn), the GI50 with Hs-578T was 0.000168 µM (active); with MCF7 it was < 0.0001 µM (active); with MDA-N, < 0.01 µM (active).

As for `COC(=O)c1oc([N+](=O)[O-])c(Cl)c1Cl`, the GI50 is 11.4 µM (inactive) in the experiment on Hs-578T; 2.04 µM (inactive) in the experiment on MCF7; 8.34 µM (inactive) in the experiment with PC-3; 7.98 µM (inactive) in the experiment on MDA-N; 7.98 µM (inactive) in the experiment on BT-549.

Consider `S=C1CC(c2ccc(Cl)cc2)Sc2ccccc2N1` (stereo not drawn), for which the GI50 is 11.9 µM (inactive) in the experiment on Hs-578T; 39.4 µM (inactive) in the experiment on MCF7; 24.2 µM (inactive) in the experiment on PC-3; > 100 µM (inactive) in the experiment with MDA-N; 21.1 µM (inactive) in the experiment with BT-549.

As for `CCOC(=O)CON=c1c2ccccc2ccc2ccccc12`, the GI50 with Hs-578T, in the experiment with MCF7, in the experiment on PC-3, in the experiment with MDA-N and with BT-549 was > 100 µM (inactive) throughout.

In the case of `NC(=O)c1nnc2ccc(F)cc2c1N`, the GI50 in the experiment with Hs-578T is > 100 µM (inactive); with MCF7, > 100 µM (inactive); in the experiment on PC-3, > 100 µM (inactive); in the experiment with MDA-N, > 100 µM (inactive); in the experiment on BT-549, 68.4 µM (inactive).

Consider `O=c1[nH]c(=O)n(C2CC(O)C(CO)O2)c2nc3ccc4ccccc4c3nc12` (stereo not drawn), for which the GI50 in the experiment on Hs-578T was 55.5 µM (inactive); with MCF7, 46.3 µM (inactive); in the experiment on PC-3, 73.8 µM (inactive); in the experiment on MDA-N, > 100 µM (inactive); in the experiment on BT-549, 66.4 µM (inactive).

Consider `O=C1CCSCCC(=O)Nc2ccccc2N1`, for which the GI50 in the experiment with Hs-578T is 88.3 µM (inactive); in the experiment on PC-3 it was > 100 µM (inactive); with MDA-N, > 100 µM (inactive); in the experiment on BT-549, > 100 µM (inactive).

Take `CCOC(=O)CCC(NC(=O)c1ccc(OCc2nc3cc(C(F)(F)F)ccc3nc2-c2ccccc2)cc1)C(=O)OCC` (stereo not drawn): the GI50 is 35.8 µM (inactive) in the experiment on Hs-578T; 5.37 µM (inactive) in the experiment with MCF7; 42.7 µM (inactive) in the experiment on PC-3; 55.5 µM (inactive) in the experiment on MDA-N; 56.6 µM (inactive) in the experiment with BT-549.

`NC(=O)C(=CN1CC(=O)NC1=S)C(N)=O`: the GI50 with MCF7, with MDA-N and in the experiment with BT-549 was > 100 µM (inactive) in each case.

With `Nn1c(-c2ccccc2)n[nH]c1=O`, the GI50 in the experiment with Hs-578T was 58.3 µM (inactive); with MCF7, > 100 µM (inactive); with PC-3, > 100 µM (inactive); in the experiment with MDA-N it was > 100 µM (inactive); in the experiment on BT-549, > 100 µM (inactive).

With `CCCCCCCCCCCCCCCCP(=O)(O)OCC(N)C(=O)O` (stereo not drawn), the GI50 with Hs-578T was 54 µM (inactive); with PC-3 it was 14.9 µM (inactive); in the experiment on MDA-N, 33.2 µM (inactive).

Consider `CCCSc1ccc2[nH]c(N3C(=O)/C(=C/c4ccc(O)c(OC)c4)N=C3c3ccccc3)cc2c1`, for which the GI50 in the experiment with Hs-578T is 0.0697 µM (active); with MCF7, 2.94 µM (inactive); in the experiment with PC-3 it was 13.2 µM (inactive); in the experiment on MDA-N, 2.32 µM (inactive); with BT-549 it was 9.57 µM (inactive).

On to `CC(C)/C(Cl)=N\OC(=O)NNc1ccccc1`, for which the GI50 was 54.6 µM (inactive) in the experiment with Hs-578T; 8.93 µM (inactive) with MCF7; 0.174 µM (active) in the experiment with PC-3; 20 µM (inactive) in the experiment with MDA-N; 17.5 µM (inactive) in the experiment with BT-549.

Turning to `COC(=O)C(=O)C(C(=O)OC)C(=O)C(=O)Nc1c(Cl)cc([N+](=O)[O-])cc1Cl` (stereo not drawn), the GI50 with Hs-578T was 66.2 µM (inactive); in the experiment on MCF7, > 100 µM (inactive); in the experiment with PC-3, > 100 µM (inactive); in the experiment with MDA-N it was > 100 µM (inactive); in the experiment on BT-549, > 100 µM (inactive).

Consider `CCOC(=O)CCCn1cc(C(=O)OC)nn1`, for which the GI50 in the experiment on Hs-578T, with MCF7, in the experiment on PC-3, in the experiment on MDA-N and in the experiment on BT-549 was > 100 µM (inactive) in each case.

As for `C(/c1ccco1)=c1/nc(-c2ccccc2)n2c1nc1ccccc12`, the GI50 in the experiment on Hs-578T is 49.1 µM (inactive); in the experiment with MCF7, 42.6 µM (inactive); in the experiment on PC-3, 1.04 µM (active); in the experiment on MDA-N, 17.6 µM (inactive); in the experiment on BT-549, 15.8 µM (inactive).

`CCCCCc1c2nc(c(CCCCC)c3ccc([nH]3)c(CCCCC)c3nc(c(CCCCC)c4ccc1[nH]4)C=C3)C=C2`: the GI50 in the experiment on Hs-578T, in the experiment with MCF7, in the experiment on PC-3, with MDA-N and with BT-549 was > 100 µM (inactive) each time.

Regarding `COc1cccc2c1OC1(C=C2)Oc2ccccc2C(=O)N1C` (stereo not drawn), the GI50 in the experiment with Hs-578T was 21.5 µM (inactive); in the experiment on MCF7 it was 37.8 µM (inactive); in the experiment on PC-3, 27.2 µM (inactive); in the experiment with MDA-N it was 15 µM (inactive); in the experiment on BT-549 it was 31.2 µM (inactive).

Take `O=C(O)c1nc2cc(C(F)(F)F)ccc2nc1Nc1ccc(F)cc1`: the GI50 in the experiment with Hs-578T is 19.6 µM (inactive); with MCF7, 22.2 µM (inactive); in the experiment on PC-3 it was 10.8 µM (inactive); in the experiment on MDA-N, 22.5 µM (inactive); in the experiment on BT-549 it was 12.6 µM (inactive).

Regarding `OCCOCn1cc(Cn2ncc3c(SCc4ccccc4)ncnc32)nn1`, the GI50 with Hs-578T was 39.8 µM (inactive); in the experiment with MCF7, 43.6 µM (inactive); in the experiment with PC-3, 69 µM (inactive); in the experiment with MDA-N, 14.4 µM (inactive); in the experiment on BT-549 it was 26.9 µM (inactive).

With `C=CCOC(C)(C)C1=CCC(C)CC1` (stereo not drawn), the GI50 in the experiment on Hs-578T, with MCF7, in the experiment with PC-3, in the experiment on MDA-N and with BT-549 was > 100 µM (inactive) in each case.

Take `[N-]=[N+]=Nc1c([N+](=O)[O-])c(=O)n2c3c(cccc13)CCC2`: the GI50 with Hs-578T was 26.2 µM (inactive); in the experiment on MCF7, 11 µM (inactive); in the experiment on PC-3, 16.9 µM (inactive); in the experiment with MDA-N it was 14.4 µM (inactive); in the experiment on BT-549 it was 18.4 µM (inactive).

Regarding `C/C(=C1/N=C(c2ccccc2)OC1=O)c1cccs1`, the GI50 is 73.5 µM (inactive) in the experiment with Hs-578T; > 100 µM (inactive) in the experiment on MCF7; > 100 µM (inactive) in the experiment on PC-3; > 100 µM (inactive) in the experiment with MDA-N; > 100 µM (inactive) in the experiment with BT-549.

Consider `CC1=CC(=O)CC(C)(C)C1/C=C/C(C)=C/C=C/C(C)=C/C=C/C=C(C)/C=C/C=C(C)/C=C/C1=C(C)CC(O)CC1(C)C` (stereo not drawn), for which the GI50 in the experiment on Hs-578T is 38.9 µM (inactive); in the experiment on MCF7, 16.3 µM (inactive); with PC-3, 45.3 µM (inactive); in the experiment with MDA-N it was 29.9 µM (inactive).

On to `COC(=O)C1C(OC(=O)C(Cl)(c2ccccc2)c2ccccc2)CC2CCC1N2C` (stereo not drawn), for which the GI50 in the experiment on MCF7, with PC-3, in the experiment on MDA-N and with BT-549 was > 100 µM (inactive) throughout.

For the compound `C=CCOC(=O)NC1C(OC(C)[C@@H](NC(=O)OCc2ccccc2)C(=O)OC(C)(C)C)OC(COC(C)=O)C(OC(C)=O)C1OC(C)=O` (stereo partly drawn), the GI50 with Hs-578T is 72.4 µM (inactive); in the experiment with MCF7, > 100 µM (inactive); with PC-3, 47 µM (inactive); in the experiment on MDA-N it was > 100 µM (inactive).

As to `CCCc1nc2c(n1CC)C(=O)c1ccccc1C2=O`, the GI50 was > 100 µM (inactive) with Hs-578T; 51.1 µM (inactive) with MCF7; 34.2 µM (inactive) with PC-3; 20 µM (inactive) in the experiment with MDA-N; 79.8 µM (inactive) in the experiment with BT-549.

For the compound `O=C(Nn1c(-c2ccccc2)nc2ccccc2c1=O)c1ccc(Cl)cc1`, the GI50 with Hs-578T is 34 µM (inactive); with MCF7 it was > 100 µM (inactive); in the experiment on PC-3, 66.4 µM (inactive); in the experiment with MDA-N it was > 100 µM (inactive); in the experiment with BT-549 it was > 100 µM (inactive).

For `Cc1ccc(-c2c(C#N)c(S)n(NS(=O)(=O)c3ccccc3)c(=O)c2C#N)cc1`, the GI50 is 28.6 µM (inactive) in the experiment on MCF7, 23.5 µM (inactive) in the experiment with PC-3, 29.7 µM (inactive) in the experiment with MDA-N and 28.2 µM (inactive) in the experiment with BT-549.

Take `CC(C)(Cl)C(Br)CCC(Br)(CCl)C(Cl)CBr` (stereo not drawn): the GI50 in the experiment on Hs-578T, in the experiment on MCF7, with PC-3 and in the experiment with MDA-N was > 10 µM (inactive) each time.

Turning to `CC1=C[C@H](C[C@]2(C)c3c(c4c(C)cccc4oc3=O)O[C@@H]2C)OC1=O`, the GI50 with Hs-578T is 63.1 µM (inactive); in the experiment on MCF7, 52.6 µM (inactive); with PC-3 it was > 100 µM (inactive); in the experiment with MDA-N, 36.6 µM (inactive); with BT-549, 23.4 µM (inactive).

As to `Cc1ccc(S(=O)(=O)NC(=O)Nc2c(S(N)(=O)=O)cc(S(N)(=O)=O)c(Cl)c2Cl)cc1`, the GI50 in the experiment with Hs-578T, with MCF7, in the experiment on PC-3, in the experiment on MDA-N and in the experiment on BT-549 was > 100 µM (inactive) in each case.

Take `O=C1Cc2c([nH]c3c(Br)cccc23)-c2ccccc2N1`: the GI50 with Hs-578T is 63.5 µM (inactive); with MCF7 it was 24.6 µM (inactive); with PC-3 it was 49.8 µM (inactive); in the experiment with MDA-N it was > 100 µM (inactive); in the experiment on BT-549, > 100 µM (inactive).

Regarding `C[N+](C)([O-])CCCNc1ccnc2cccc([N+](=O)[O-])c12`, the GI50 was 21.1 µM (inactive) in the experiment with Hs-578T; 27.4 µM (inactive) with MCF7; 45.8 µM (inactive) with PC-3; 30.6 µM (inactive) in the experiment with MDA-N; 41.9 µM (inactive) in the experiment with BT-549.

Take `O=C(C(=O)N1CCc2ccccc21)c1c[nH]c2ccccc12`: the GI50 with Hs-578T, in the experiment on MCF7, in the experiment with PC-3, in the experiment on MDA-N and with BT-549 was > 10 µM (inactive) throughout.
